Reference: patent US20230048888A1, “USE OF TRIAZOLOTRIAZINE DERIVATIVE IN TREATMENT OF DISEASES” (ZHEJIANG VIMGREEN PHARMACEUTICALS, LTD., priority 2019, published 2023)
Values belong to the compound of their own block, whether it stands above or below them.

Legend:
[1] = Pharmacokinetics of Compounds 27, 16, 14 and 22 in SD rats; assay type: in vivo; settings: for AUC(0-t) / Cmax / half-life / clearance: Sprague-Dawley, rat, in vivo; for clearance: read-out: Cl—pred (converted)
Excerpt: WinNonlin® 6.4 was used as the calculation software for PK parameters.

[2] = Pharmacokinetics of test compounds in SD rats (15.2; IV and PO, mixed administration); assay type: in vivo; settings: male, Sprague-Dawley, rat, plasma; SD rats, PO, 2 mg/kg, mixed administration (6 compounds per group)
Procedure: Administration dose: the compounds in this group were all administered in a mixed way, with 6 compounds in each group for mixed PO administration.
Blood was collected based on the blood collection points in the test protocol. 50 μL of plasma sample was added with acetonitrile (containing 5 ng/mL Verapamil) being 3 folds of the volume thereof; the resulting mixture was vortexed for 30 s, and then centrifuged for 15 min at 15,000 rpm at 4° C.; and 10μ L of supernatant was taken for LC-MS/MS analysis.
For each compound, 3 male SD rats weighing 200-220 g were fasted for one night before dosage, but had access to water.
Orally intragastric administration: before intragastric administration and at 0.083 h, 0.25 h, 0.5 h, 1 h, 2 h, 4 h, 8 h and 24 h after administration (for Compounds 40, 27, 40 and 47), or at 0.25 h, 0.5 h, 1 h, 4 h, 6 h and 8 h after administration (for Compounds 44 and 48), orbital blood was collected and put in a test tube that was treated with heparin sodium, and after centrifugation, the supernatant plasma was collected for LC-MS/MS analysis.
The plasma samples were processed according to the method for “sample treatment” and then analyzed by LC-MS/MS, accompanied with the standard curve and quality control samples. At a time point when the upper limit of quantification was exceeded, the samples were diluted 10 or 100 folds for analysis. All measured data were collected and processed by Analyst 1.6.3 software, and the data were calculated and processed with Microsoft Excel. With DAS 3.2.8 software, the pharmacokinetic parameters were calculated by the statistical moment method. The pharmacokinetic parameters mainly include Tmax, t1/2, Cmax, AUC(0-t), etc.

Cl—F—pred ([1]; PO, dose 10 (mg/kg)): 144 mL/min/kg
F ([1]; PO, dose 10 (mg/kg)): 17.90%
AUC(0-t) ([1]; IV, dose 1 (mg/kg)): 678 ng·h/mL
Cmax ([1]; IV, dose 1 (mg/kg)): 1680 ng/mL
half-life ([1]; IV, dose 1 (mg/kg)): 0.44 h
clearance ([1]; IV, dose 1 (mg/kg)): 24.7 mL/min/kg
AUC(0-t) ([1]; PO, dose 10 (mg/kg)): 1210 ng·h/mL
Cmax ([1]; PO, dose 10 (mg/kg)): 574 ng/mL
half-life ([1]; PO, dose 10 (mg/kg)): 3.05 h
SMILES: Nc1nc(NCCc2ccc(OCCN3CCC(F)(F)C3)cc2)nc2nc(-c3ccco3)nn12 [Compound 14, N5-(4-(2-(3,3-difluoropyrrolidin-1-yl)ethoxy)phenethyl)-2-(furan-2-yl)-[1,2,4]triazolo[1,5-a][1,3,5]triazine-5,7-diamine]

Cl—F—pred ([1]; PO, dose 10 (mg/kg)): 233 mL/min/kg
AUC(0-t) ([1]; IV, dose 1 (mg/kg)): 536 ng·h/mL
Cmax ([1]; IV, dose 1 (mg/kg)): 986 ng/mL
half-life ([1]; IV, dose 1 (mg/kg)): 0.61 h
clearance ([1]; IV, dose 1 (mg/kg)): 31.5 mL/min/kg
AUC(0-t) ([1]; PO, dose 10 (mg/kg)): 758 ng·h/mL
Cmax ([1]; PO, dose 10 (mg/kg)): 258 ng/mL
half-life ([1]; PO, dose 10 (mg/kg)): 4.78 h
SMILES: Nc1nc(NCCc2ccc(OCCN3CC[C@H](F)C3)cc2)nc2nc(-c3ccco3)nn12 [Compound 16, (S)-N5-(4-(2-(3-fluoropyrrolidin-1-yl)ethoxy)phenethyl)-2-(furan-2-yl)-[1,2,4]triazolo[1,5-a][1,3,5]triazine-5,7-diamine]

AUC(0-t) [2]: 142 ng·h/mL
SMILES: COCCN(C)c1ccc(CCNc2nc(N)n3nc(-c4ccco4)nc3n2)cc1 [Compound 25, 2-(furan-2-yl)-N5-(4-((2-methoxyethyl)(methyl)amino)phenethyl)-[1,2,4]triazolo[1,5-a][1,3,5]triazine-5,7-diamine]

AUC(0-t) [2]: 160 ng·h/mL
SMILES: COCCOCCOCCNc1ccc(CCNc2nc(N)n3nc(-c4ccco4)nc3n2)cc1 [Compound 29, 2-(furan-2-yl)-N5-(4-((2-(2-(2-methoxyethoxy)ethoxy)ethyl)amino)phenethyl)-[1,2,4]triazolo[1,5-a][1,3,5]triazine-5,7-diamine]

AUC(0-t) [2]: 315 ng·h/mL
SMILES: CCCn1nnc(-c2ccc(CCNc3nc(N)n4nc(-c5ccco5)nc4n3)cc2)n1 [Compound 43, N5-(4-(2-propyl-2H-tetrazol-5-yl)phenethyl)-2-(furan-2-yl)-[1,2,4]triazolo[1,5-a][1,3,5]triazine-5,7-diamine]

AUC(0-t) [2]: 341 ng·h/mL
SMILES: N#CCn1nnc(-c2ccc(CCNc3nc(N)n4nc(-c5ccco5)nc4n3)cc2)n1 [Compound 44, 2-(5-(4-(2-(7-amino-2-(furan-2-yl)-[1,2,4]triazolo[1,5-a][1,3,5]triazine-5-ylamino)ethyl)-phenyl)-2H-tetrazol-2-yl)acetonitrile]

AUC(0-t) [2]: 718 ng·h/mL
SMILES: N#Cc1ccc(CCNc2nc(N)n3nc(-c4ccco4)nc3n2)cc1 [Compound 45, 4-(2-(7-amino-2-(furan-2-yl)-[1,2,4]triazolo[1,5-a][1,3,5]triazine-5-ylamino)ethyl)-benzonitrile]

AUC(0-t) [2]: 739 ng·h/mL
SMILES: Nc1nc(NCCc2ccc(-c3nnn(CC(F)(F)F)n3)cc2)nc2nc(-c3ccco3)nn12 [Compound 46, N5-(4-(2-(2,2,2-trifluoroethyl)-2H-tetrazol-5-yl)phenethyl)-2-(furan-2-yl)-[1,2,4]triazolo[1,5-a][1,3,5]triazine-5,7-diamine]

AUC(0-t) [2]: 597 ng·h/mL
SMILES: Nc1nc(NCCc2ccc(-c3ccccn3)cc2)nc2nc(-c3ccco3)nn12 [Compound 48, 2-(furan-2-yl)-N5-(4-(pyridin-2-yl)phenethyl)-[1,2,4]triazolo[1,5-a][1,3,5]triazine-5,7-diamine]

AUC(0-t) [2]: 420 ng·h/mL
SMILES: Nc1nc(NCCc2ccc(-c3ncccn3)cc2)nc2nc(-c3ccco3)nn12 [Compound 51, 2-(furan-2-yl)-N5-(4-(pyrimidin-2-yl)phenethyl)-[1,2,4]triazolo[1,5-a][1,3,5]triazine-5,7-diamine]

AUC(0-t) [2]: 388 ng·h/mL
SMILES: Cn1cnc(-c2ccc(CCNc3nc(N)n4nc(-c5ccco5)nc4n3)cc2)n1 [Compound 52, 2-(furan-2-yl)-N5-(4-(1-methyl-1H-1,2,4-triazol-3-yl)phenethyl)-[1,2,4]triazolo[1,5-a][1,3,5]triazine-5,7-diamine]
